Reference: patent publication US9611267B2, “Substituted tricyclic compounds as FGFR inhibitors” (Incyte Corporation, priority 2012, dated 2017)

Key:
Format in all cases: biochemical
FGFR2 = FGFR2 (Homo sapiens (Human), UniProt P21802); experiment: FGFR enzymatic assay (FRET peptide phosphorylation), FGFR2; conditions: FGFR2 enzyme 0.01 nM, ATP 100 μM
Outline: (§1)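 IC50 values were obtained from variable-slope sigmoidal dose-response fitting of a FRET read-out of peptide phosphorylation. The buffer, described for FGFR3, was 50 mM HEPES pH 7.5 with MgCl2, EGTA, Tween-20 and DTT.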

FGFR3 = FGFR3 (Homo sapiens (Human), UniProt P22607); experiment: FGFR enzymatic assay (FRET peptide phosphorylation), FGFR3; conditions: FGFR3 enzyme (Millipore), ATP 140 μM
Outline: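 After 5-10 min pre-incubation of FGFR3 with serially diluted compound in pH 7.5 HEPES/MgCl2/EGTA/DTT buffer, the reaction proceeded 1 hr at 25° C. Phosphorylated peptide was detected by FRET, and IC50 was fitted with a variable-slope sigmoid.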

FGFR1 = FGFR1 (Homo sapiens (Human), UniProt P11362); experiment: FGFR enzymatic assay (FRET peptide phosphorylation), FGFR1; conditions: FGFR1 enzyme 0.02 nM, ATP 210 μM
Outline: as §1

Measured: IC50

Sequence of FGFR3 (P22607 23-806): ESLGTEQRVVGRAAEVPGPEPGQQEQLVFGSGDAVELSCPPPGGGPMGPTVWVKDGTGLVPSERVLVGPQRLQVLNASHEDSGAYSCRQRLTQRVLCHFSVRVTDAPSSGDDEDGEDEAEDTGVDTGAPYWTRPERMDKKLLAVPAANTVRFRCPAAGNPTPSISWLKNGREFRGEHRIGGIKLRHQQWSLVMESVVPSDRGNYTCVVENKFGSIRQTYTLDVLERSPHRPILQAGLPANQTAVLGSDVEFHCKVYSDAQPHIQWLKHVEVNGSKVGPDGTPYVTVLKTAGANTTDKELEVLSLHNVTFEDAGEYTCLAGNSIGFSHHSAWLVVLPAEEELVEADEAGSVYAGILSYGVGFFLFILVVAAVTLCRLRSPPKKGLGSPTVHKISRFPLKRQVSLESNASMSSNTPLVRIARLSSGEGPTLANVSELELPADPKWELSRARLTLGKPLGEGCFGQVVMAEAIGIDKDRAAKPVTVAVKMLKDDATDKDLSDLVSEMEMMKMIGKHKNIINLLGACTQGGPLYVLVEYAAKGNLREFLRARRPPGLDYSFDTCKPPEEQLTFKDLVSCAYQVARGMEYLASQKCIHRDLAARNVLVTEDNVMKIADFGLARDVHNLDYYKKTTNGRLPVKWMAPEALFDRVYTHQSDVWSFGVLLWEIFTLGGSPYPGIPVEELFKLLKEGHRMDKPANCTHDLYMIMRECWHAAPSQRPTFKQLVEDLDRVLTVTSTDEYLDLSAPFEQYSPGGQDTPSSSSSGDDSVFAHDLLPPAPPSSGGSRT
Sequence of FGFR1 (P11362 22-822): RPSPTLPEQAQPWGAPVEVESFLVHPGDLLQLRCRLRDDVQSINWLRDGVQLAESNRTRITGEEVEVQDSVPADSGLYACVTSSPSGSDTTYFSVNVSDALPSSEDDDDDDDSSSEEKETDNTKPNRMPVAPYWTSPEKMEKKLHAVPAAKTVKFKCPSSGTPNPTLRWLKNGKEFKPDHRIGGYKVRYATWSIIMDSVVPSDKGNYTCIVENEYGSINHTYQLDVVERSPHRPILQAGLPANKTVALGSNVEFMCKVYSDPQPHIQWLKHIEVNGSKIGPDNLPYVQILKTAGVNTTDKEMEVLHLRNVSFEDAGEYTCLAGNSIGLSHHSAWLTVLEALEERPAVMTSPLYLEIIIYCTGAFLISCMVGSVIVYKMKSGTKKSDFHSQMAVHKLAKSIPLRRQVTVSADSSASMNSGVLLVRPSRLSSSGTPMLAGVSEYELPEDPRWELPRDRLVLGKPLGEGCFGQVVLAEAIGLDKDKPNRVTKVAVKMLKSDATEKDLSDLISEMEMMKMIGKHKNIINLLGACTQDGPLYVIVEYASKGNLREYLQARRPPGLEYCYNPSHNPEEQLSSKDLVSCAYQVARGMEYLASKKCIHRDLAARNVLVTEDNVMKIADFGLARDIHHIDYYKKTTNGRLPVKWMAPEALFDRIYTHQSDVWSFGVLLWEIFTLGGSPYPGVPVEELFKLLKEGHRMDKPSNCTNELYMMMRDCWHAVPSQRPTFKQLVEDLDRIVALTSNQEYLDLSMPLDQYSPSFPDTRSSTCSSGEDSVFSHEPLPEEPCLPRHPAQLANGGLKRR
Sequence of FGFR2 (P21802 22-821): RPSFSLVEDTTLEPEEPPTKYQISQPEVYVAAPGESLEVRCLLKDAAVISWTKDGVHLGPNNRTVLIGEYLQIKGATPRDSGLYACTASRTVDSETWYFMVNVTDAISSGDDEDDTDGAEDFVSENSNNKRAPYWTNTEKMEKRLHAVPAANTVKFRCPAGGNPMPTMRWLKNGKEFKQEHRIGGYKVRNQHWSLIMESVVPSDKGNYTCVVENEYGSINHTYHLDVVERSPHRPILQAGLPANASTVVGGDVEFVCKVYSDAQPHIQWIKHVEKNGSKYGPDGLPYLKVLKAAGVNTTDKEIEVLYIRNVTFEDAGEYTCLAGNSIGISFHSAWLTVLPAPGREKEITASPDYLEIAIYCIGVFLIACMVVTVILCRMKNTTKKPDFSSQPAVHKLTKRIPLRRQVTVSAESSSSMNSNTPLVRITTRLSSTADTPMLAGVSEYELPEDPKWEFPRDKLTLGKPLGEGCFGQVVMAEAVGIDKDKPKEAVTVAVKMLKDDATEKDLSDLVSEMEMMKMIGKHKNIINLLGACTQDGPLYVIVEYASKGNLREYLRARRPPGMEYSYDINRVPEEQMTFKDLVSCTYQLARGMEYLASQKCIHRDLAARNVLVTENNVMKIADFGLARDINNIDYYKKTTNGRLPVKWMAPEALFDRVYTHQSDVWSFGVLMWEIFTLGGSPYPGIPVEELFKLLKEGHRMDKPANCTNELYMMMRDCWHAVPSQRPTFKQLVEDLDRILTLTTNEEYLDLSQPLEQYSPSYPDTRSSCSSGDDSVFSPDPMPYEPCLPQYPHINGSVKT

CCN1C(=O)N(c2c(F)c(OC)cc(OC)c2F)Cc2cnc3[nH]c(CCN4CC(C#N)C4)cc3c21 [Example 230, 1-{2-[3-(2,6-difluoro-3,5-dimethoxyphenyl)-1-ethyl-2-oxo-2,3,4,7-tetrahydro-1H-pyrrolo[3′,2′:5,6]pyrido[4,3-d]pyrimidin-8-yl]ethyl}azetidine-3-carbonitrile]
< 100 nM: all assays above

CCN1C(=O)N(c2c(F)c(OC)cc(OC)c2F)Cc2cnc3[nH]c(CCN4CC(F)C4)cc3c21 [Example 231, 3-(2,6-difluoro-3,5-dimethoxyphenyl)-1-ethyl-8-[2-(3-fluoroazetidin-1-yl)ethyl]-1,3,4,7-tetrahydro-2H-pyrrolo[3′,2′:5,6]pyrido[4,3-d]pyrimidin-2-one]
< 100 nM: all assays above

COc1cc(OC)c(F)c(N2Cc3cnc4[nH]c(CN5CCOCC5)cc4c3N(CCF)C2=O)c1F [Example 232, 3-(2,6-difluoro-3,5-dimethoxyphenyl)-1-(2-fluoroethyl)-8-(morpholin-4-ylmethyl)-1,3,4,7-tetrahydro-2H-pyrrolo[3′,2′:5,6]pyrido[4,3-d]pyrimidin-2-one]
< 100 nM: all assays above

COc1cc(OC)c(F)c(N2Cc3cnc4[nH]c(CN5CCN(C)CC5)cc4c3N(CCF)C2=O)c1F [Example 233, 3-(2,6-difluoro-3,5-dimethoxyphenyl)-1-(2-fluoroethyl)-8-[(4-methylpiperazin-1-yl)methyl]-1,3,4,7-tetrahydro-2H-pyrrolo[3′,2′:5,6]pyrido[4,3-d]pyrimidin-2-one]
< 100 nM: all assays above
